Columns and labels:
[1] = physchem; conditions: pH 7.8
Description: Dissociation constant, pKa of the compound at pH 7.8

[2] = test system: Neuron; assay: Increase in membrane potential in mollusc neurons assessed as conductance of potassium at pH 7.8 relative to salicylic acid; assay type: functional, Mollusca
[3] = test system: Colon; assay: Drug absorption in anesthetized rat colon at pH 6.8; assay type: ADME, tissue-based; conditions: in vivo
[4] = physchem; conditions: octanol/water
Description: Octanol-water partition coefficient, log P of the compound

[5] = physchem; conditions: octanol/aqueous phase
[6] = physchem
[7] = octanol/water
[8] = physchem; conditions: pH 6.8
Description: Dissociation constant, pKa of the compound at pH 6.8

[9] = physchem; conditions: octanol/aqueous phase; remark: listed apart in the source
Description: Octanol-aqueous phase partition coefficient, log P of the compound

[10] = Dissociation constant, pKa of the compound at pH 5.3; assay type: physicochemical
[11] = test system: Small intestine; assay: Drug absorption in rat small intestine; assay type: ADME, tissue-based; conditions: in vivo
[12] = Uncoupling of oxidative phosphorylation in rat liver mitochondria at pH 5 relative to control; assay type: functional
[13] = Octanol-aqueous phase distribution coefficient, log D of the compound at pH 5; assay type: physicochemical
[14] = Uncoupling of oxidative phosphorylation in rat liver mitochondria at pH 8 relative to control; assay type: functional
[15] = Octanol-aqueous phase distribution coefficient, log D of the compound at pH 7; assay type: physicochemical
[16] = Uncoupling of oxidative phosphorylation in rat liver mitochondria at pH 6 relative to control; assay type: functional
[17] = Octanol-aqueous phase distribution coefficient, log D of the compound at pH 8; assay type: physicochemical
[18] = Uncoupling of oxidative phosphorylation in rat liver mitochondria at pH 7 relative to control; assay type: functional
[19] = Octanol-aqueous phase distribution coefficient, log D of the compound at pH 6; assay type: physicochemical

Row | SMILES | pKa [1] | fold change (FC) [2] | log%Abs [3] | logP [4] | logD [5] | pKa [6] | logD [7] | other results
1 | O=C(O)c1cc(O)ccc1O [GENTISIC ACID] | 4.83 | -0.7 | – | – | – | – | – | –
2 | Oc1ccccc1 [PHENOL] | – | – | 1.55 | – | – | – | – | –
3 | O=C(O)c1ccc(O)cc1O [2,4-DIHYDROXYBENZOIC ACID] | – | -1 | – | 1.6 | -1.5 | 4.7 | – | –
4 | O=C(O)c1cccc(O)c1 [3-HYDROXYBENZOIC ACID] | 3.74 | -1 | – | 1.5 | – | – | -2.24 | –
5 | O=C(O)c1ccc(Br)cc1 | 3.82 | 0.4 | – | 2.86 | – | 3.98 | -0.96 | –
6 | CCC(=O)c1ccc(O)cc1 [PAROXYPROPIONE] | – | – | 1.66 | – | 1.81 | – | – | pKa [8]: 1; logP [9]: 1.85
7 | O=C(O)c1cccc(I)c1 | – | 0.6 | – | 3.13 | – | 4 | -0.67 | –
8 | CC(=O)Nc1ccccc1 [ACETANILIDE] | – | – | 1.56 | – | 1.16 | – | – | pKa [10]: 5; log%Abs [11]: 1.62; pKa [8]: 6.5
9 | CC(C)CCCCCc1cc([N+](=O)[O-])c(O)c([N+](=O)[O-])c1 | – | – | – | – | – | 4.1 | – | fold change (FC) [12]: 6.08; logD [13]: 4.32; fold change (FC) [14]: 5.41; logD [15]: 2.42; fold change (FC) [16]: 5.89; logP [9]: 5.32; logD [17]: 1.42; fold change (FC) [18]: 5.64; logD [19]: 3.42
10 | O=C(O)c1ccccc1Cl | 4.88 | -0.7 | – | 1.98 | – | – | -2.9 | –
11 | O=C(O)c1cc(I)ccc1O | 5.15 | 1.43 | – | 3.52 | -1.63 | 2.65 | – | –
12 | Cc1ccc(N)cc1 | – | – | 1.71 | – | – | – | – | pKa [10]: 0; log%Abs [11]: 1.77; pKa [8]: 1.5
13 | c1ccc(CC2=NCCN2)cc1 [TOLAZOLINE] | – | – | 0.6 | – | -2.35 | – | – | pKa [10]: 5; log%Abs [11]: 0.78; pKa [8]: 3.5; logP [9]: 2.65
14 | C=C[C@H]1C[N@@]2CC[C@H]1C[C@H]2[C@H](O)c1ccnc2ccc(OC)cc12 [QUININE] | – | – | 1.3 | – | – | – | – | log%Abs [11]: 1.18
15 | O=C(O)c1cc(I)cc(I)c1O | 5.47 | 2 | – | 4.78 | -0.69 | 2.33 | – | –
16 | Cc1cc(=O)n(-c2ccccc2)n1C [ANTIPYRINE] | – | – | 1.3 | – | – | – | – | pKa [10]: 3.9; log%Abs [11]: 1.51; pKa [8]: 5.4
17 | Cn1c(=O)c2[nH]cnc2n(C)c1=O.O [THEOPHYLLINE] | – | – | – | – | -0.78 | – | – | log%Abs [11]: 1.46; logP [9]: -0.78
18 | O=C(O)c1ccc([N+](=O)[O-])cc1 [4-NITROBENZOIC ACID] | 4.39 | -0.52 | – | 1.89 | – | 3.41 | -2.5 | –
19 | O=C(O)c1cc([N+](=O)[O-])ccc1O | 5.48 | 0 | 0.3 | 2.21 | -3.27 | 2.32 | – | pKa [8]: 4.5; logP [9]: 1.98
20 | CN[C@@H](C)[C@H](O)c1ccccc1 [EPHEDRINE] | – | – | 0.95 | – | – | – | – | log%Abs [11]: 0.85
21 | O=C(O)c1c(O)cccc1O | 5.1 | 0.18 | – | 2.2 | -2.9 | 2.7 | – | –
22 | Nc1ccccc1 [ANILINE] | – | – | 1.64 | – | 0.82 | – | – | log%Abs [11]: 1.73

Row | SMILES | pKa [1] | fold change (FC) [2] | log%Abs [3] | logP [4] | logD [5] | pKa [6] | logD [7] | other results
23 | O=C(O)c1cc([N+](=O)[O-])cc([N+](=O)[O-])c1O [3,5-DINITROSALICYLIC ACID] | 6.25 | 0 | – | 2.21 | – | 1.55 | -4.04 | –
24 | O=[N+]([O-])c1ccc(O)cc1 [P-NITROPHENOL] | – | – | – | – | – | – | – | fold change (FC) [12]: 3.3; logD [13]: 1.96; fold change (FC) [14]: 3.39; logD [15]: 1.66; fold change (FC) [16]: 3.37; logP [9]: 1.96; logD [17]: 0.96; fold change (FC) [18]: 3.51; logD [19]: 1.96
25 | O=C(O)c1cccc([N+](=O)[O-])c1 | 4.33 | -0.7 | 1 | 1.83 | – | 3.47 | -2.5 | pKa [8]: 3.4; logP [9]: 1.83
26 | O=C(O)c1cc(Cl)ccc1O [5-CHLOROSALICYLIC ACID] | 5.17 | 1 | – | 3.02 | -2.15 | 2.63 | – | –
27 | CCCC(C)C1(CC)C(=O)NC(=S)NC1=O (stereo unspecified) [THIOPENTAL] | – | – | 1.7 | – | 2.44 | – | – | pKa [8]: 0.8; logP [9]: 2.5
28 | CCCCC1C(=O)N(c2ccccc2)N(c2ccccc2)C1=O [PHENYLBUTAZONE] | – | – | 1.58 | – | – | – | – | –
29 | Nc1ccc([N+](=O)[O-])cc1 [4-NITROANILINE] | – | – | 1.7 | – | – | – | – | log%Abs [11]: 1.83
30 | O=C(O)c1cc(Br)ccc1O | 5.18 | 1.23 | – | 3.21 | -1.97 | 2.62 | – | –
31 | O=C(O)c1ccccc1O [SALICYLIC ACID] | – | – | 1.08 | 2.21 | – | – | -2.62 | –
32 | O=C(O)c1cccc(Br)c1 | 3.94 | 0.48 | – | 2.84 | – | – | -1.1 | –
33 | COc1ccc(O)c(C(=O)O)c1 | 4.94 | 0.18 | – | 2.41 | -2.53 | 2.86 | – | –
34 | O=[N+]([O-])c1ccccc1O [NITROPHENOLATE] | – | – | 1.74 | – | 1.58 | – | – | pKa [8]: 0.2; logP [9]: 1.79
35 | O=C(O)c1ccccc1 [BENZOIC ACID] | – | – | 1.28 | – | – | – | – | –
36 | O=C(O)c1cccc(Cl)c1 | 3.98 | 0.18 | – | 2.68 | – | – | -1.3 | –
37 | O=C(O)c1ccc(Cl)c(Cl)c1 | 4.14 | 0.93 | – | 3.46 | – | 3.66 | -0.68 | –
38 | Cc1ccc(C(=O)O)cc1 [4-METHYLBENZOIC ACID] | 3.44 | – | – | – | – | – | -2.09 | –
39 | O=C(O)c1cc(Br)cc(Br)c1O | 5.54 | 1.6 | – | 4.21 | -1.33 | 2.26 | – | –
40 | Cc1c(N(C)C)c(=O)n(-c2ccccc2)n1C [AMINOPYRINE] | – | – | 1.32 | – | – | – | – | pKa [10]: 0.3; log%Abs [11]: 1.52; pKa [8]: 1.8
41 | O=[N+]([O-])c1cccc(O)c1 [3-NITRO-PHENOL] | – | – | 1.64 | – | 2 | – | – | pKa [8]: 1.4; logP [9]: 2
42 | Nc1cccc([N+](=O)[O-])c1 [3-NITROANILINE] | – | – | 1.68 | – | 1.37 | – | – | pKa [10]: 2.8; log%Abs [11]: 1.89; pKa [8]: 4.3; logP [9]: 1.37
43 | O=C(O)c1ccc(I)cc1 | 3.89 | 0.54 | – | 3.02 | – | 3.91 | -0.87 | –

Reference: ChEMBL document CHEMBL3272293, “Use of distribution coefficients in quantitative structure-activity relationships” (J Med Chem, 1977)
